The IC50 is the concentration at which inhibition is half-maximal. As usually defined, the EC50 is the concentration at which the effect is half-maximal.

In US20100184786A1, “Polar Quinazolines” (Wyeth LLC, priority 2008, published 2010) one finds IC50, EC50 and Emax data, which are given here for 20 compounds.

The target of one assay is T1, human LXRβ (Homo sapiens, UniProt P55055).
T1 construct: biotin (biotinylated); made in house; host or cells: E. coli
T1 sequence (P55055 1-460): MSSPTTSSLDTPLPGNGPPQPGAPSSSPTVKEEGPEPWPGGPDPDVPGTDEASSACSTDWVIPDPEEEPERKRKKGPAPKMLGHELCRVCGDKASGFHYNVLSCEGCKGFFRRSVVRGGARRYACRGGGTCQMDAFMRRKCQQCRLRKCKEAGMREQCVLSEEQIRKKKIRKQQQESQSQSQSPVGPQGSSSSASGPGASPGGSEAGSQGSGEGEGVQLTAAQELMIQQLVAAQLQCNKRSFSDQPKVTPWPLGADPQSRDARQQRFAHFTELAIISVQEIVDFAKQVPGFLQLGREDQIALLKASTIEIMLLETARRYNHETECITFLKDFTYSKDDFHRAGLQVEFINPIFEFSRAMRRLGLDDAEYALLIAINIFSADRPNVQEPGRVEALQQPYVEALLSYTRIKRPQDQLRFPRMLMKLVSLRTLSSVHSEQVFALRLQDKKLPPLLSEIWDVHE
Kind of assay: Ligand-binding test procedure for human LXRβ (3H T0901317 tracer, flash plates). Conditions: competition with 3H T0901317; read-out: hLXRb binding IC50. As to the method:
I. Ligand-Binding Test Procedure for Human LXRβ.
• Buffer: 100 mM KCl, 100 mM TRIS (pH 7.4 at +4° C.), 8.6% glycerol, 0.1 mM PMSF*, 2 mM MTG*, 0.2% CHAPS (* not used in wash buffer) • Tracer: ^3H T0901317 • Receptor source: E. coli extracted from cells expressing biotinylated hLXRβ. Extract was made in a similar buffer as above, but with 50 mM TRIS.
• Washed streptavidin and coated flash plates with wash buffer. • Diluted receptor extract to give Bmax˜4000 cpm and add to the wells. • Wrapped the plates in aluminum foil and stored them at +4° C. overnight.
(§1) • Made a dilution series in DMSO of the test ligands. • Made a 5 nM solution of the radioactive tracer in buffer. • Mixed 2500 diluted tracer with 50 of the test ligand from each concentration of the dilution series. • Washed the receptor-coated flash plates. • Added 2000 per well of the ligand/radiolabel mixture to the receptor-coated flash plates. • Wrapped the plates in aluminum foil and incubate at +4° C. over night.
• Aspirated wells, and washed the flashed plates. Sealed the plate. • Measured the remaining radioactivity in the plate.

For the next assay, the target named is T2, human LXRα (Homo sapiens, UniProt Q13133).
T2 construct: biotin (biotinylated); made in house; host or cells: E. coli
T2 sequence (Q13133 1-447): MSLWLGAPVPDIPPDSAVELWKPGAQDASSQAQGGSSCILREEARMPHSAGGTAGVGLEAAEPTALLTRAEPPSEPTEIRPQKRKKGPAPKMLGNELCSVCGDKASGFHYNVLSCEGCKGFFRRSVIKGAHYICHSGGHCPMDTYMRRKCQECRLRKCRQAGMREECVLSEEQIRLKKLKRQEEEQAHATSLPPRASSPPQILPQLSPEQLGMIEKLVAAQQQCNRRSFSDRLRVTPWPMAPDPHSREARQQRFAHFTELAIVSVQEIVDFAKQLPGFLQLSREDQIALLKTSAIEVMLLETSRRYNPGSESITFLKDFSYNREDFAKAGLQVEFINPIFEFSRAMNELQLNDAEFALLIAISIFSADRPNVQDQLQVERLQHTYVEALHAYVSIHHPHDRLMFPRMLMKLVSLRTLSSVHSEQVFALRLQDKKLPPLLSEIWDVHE
Put plainly: Ligand-binding test procedure for human LXRα (3H T0901317 tracer, flash plates). Conditions: competition with 3H T0901317; read-out: hLXRa binding IC50. As to the method:
II. Ligand-Binding Test Procedure for Human LXRa.
• Buffer: 100 mM KCl, 100 mM TRIS (pH 7.4 at +4° C.), 8.6% glycerol, 0.1 mM PMSF*, 2 mM MTG*, 0.2% CHAPS (* not used in wash buffer) • Tracer: ^3H T0901317 • Receptor source: E. coli extract from cells expressing biotinylated hLXRα. Extract was made in a similar buffer as above, but with 50 mM TRIS.
• Washed streptavidin and coated flash plates with wash buffer. • Diluted receptor extract to give Bmax˜4000 cpm and add to the wells. • Wrapped the plates in aluminum foil and stored them at +4° C. over night.
as §1
• Aspirated wells, and wash the flashed plates. Sealed the plate. • Measured the remaining radioactivity in the plate.

In the next assay the test system is ABCA1 gene. Kind of assay: Gene regulation by LXR (murine): ABCA1 gene regulation, mRNA by real-time PCR. The format is cell-based. Conditions: Mus musculus; for Emax: read-out: Agonism ABCA1. (Quantitative PCR measures a nucleic acid by following its amplification.)

As for `NC(=O)CS(=O)(=O)c1cccc(Oc2ccc(Cl)c(-c3ncnc4c(C(F)(F)F)cccc34)c2)c1` [Example 14, 2-[(3-{4-chloro-3-[8-(trifluoromethyl)quinazoliyl]phenoxy}phenyl)sulfonyl]-acetamide], at human LXRβ, the 50% inhibitory concentration (IC50) came out at 56 nM. For the same compound, at human LXRα, the IC50 was determined as 705 nM. Further, in the assay with ABCA1 gene, the concentration giving a half-maximal response (EC50) amounted to 1380 nM and the Emax is 95%.

Take `N#CCCCCS(=O)(=O)c1cccc(Oc2ccc(F)c(-c3ncnc4c(Cl)cccc34)c2)c1` [Example 52, 5-({3-[3-(8-chloroquinazolin-4-yl)-4-fluorophenoxy]phenyl}sulfonyl)pentanenitrile]: the 50% inhibitory concentration (IC50) was 107 nM at human LXRβ and 2030 nM at human LXRα. In the assay on ABCA1 gene, the EC50 amounted to 1800 nM. In addition, the Emax in the assay with ABCA1 gene was determined as 74%.

In the case of `N#CCCCS(=O)(=O)c1cccc(Oc2ccc(Cl)c(-c3ncnc4c(Cl)cccc34)c2)c1` [Example 4, 4-({3-[4-chloro-3-(8-chloroquinazolin-4-yl)phenoxy]phenyl}sulfonyl)butanenitrile], the IC50 on human LXRβ was found to be 105 nM. Moreover, the half-maximal inhibitory concentration (IC50) at human LXRα worked out at 1810 nM. In the assay on ABCA1 gene, the half-maximal effective concentration (EC50) was found to be 4340 nM and the Emax is 48%.

`CS(=O)(=O)CCCCS(=O)(=O)c1cccc(Oc2ccc(F)c(-c3ncnc4c(C(F)(F)F)cccc34)c2)c1` [Example 37, 4-[2-fluoro-5-(3-{[4-(methylsulfonyl)butyl]sulfonyl}phenoxy)phenyl]-8-(trifluoromethyl)-quinazoline]: the IC50 at human LXRβ is 66 nM. For the same compound, on human LXRα, the half-maximal inhibitory concentration (IC50) amounted to 536 nM. Also, in the assay on ABCA1 gene, the EC50 came out at 415 nM and the Emax was determined as 77%.

With `CNS(=O)(=O)c1cccc(Oc2ccc(Cl)c(-c3ncnc4c(Cl)cccc34)c2)c1` [Example 16, 3-[4-chloro-3-(8-chloroquinazolin-4-yl)phenoxy]-N-methylbenzenesulfonamide], the IC50 on human LXRβ was 11 nM. In addition, the IC50 at human LXRα stood at 146 nM. In the assay with ABCA1 gene, the EC50 is 255 nM and the Emax came out at 98%.

In the case of `CNS(=O)(=O)c1cccc(Oc2ccc(F)c(-c3ncnc4c(Cl)cccc34)c2)c1` [Example 23, 3-[3-(8-chloroquinazolin-4-yl)-4-fluorophenoxy]-N-methylbenzenesulfonamide], at human LXRβ, the 50% inhibitory concentration (IC50) turned out to be 17 nM. Further, the IC50 on human LXRα stood at 33 nM. In the assay with ABCA1 gene, the response was half-maximal at 450 nM (EC50) and the Emax is 85%.

As for `NS(=O)(=O)c1cccc(Oc2ccc(Cl)c(-c3ncnc4c(Cl)cccc34)c2)c1` [Example 17, 3-[4-chloro-3-(8-chloroquinazolin-4-yl)phenoxy]benzenesulfonamide], the IC50 at human LXRβ was 151 nM; on human LXRα it was 1710 nM. For the same compound, a half-maximal effect in the assay with ABCA1 gene (EC50) was put at 1480 nM. Also, the Emax in the assay on ABCA1 gene amounted to 74%.

For `NS(=O)(=O)c1cccc(Oc2ccc(F)c(-c3ncnc4c(C(F)(F)F)cccc34)c2)c1` [Example 21, 3-{4-fluoro-3-[8-(trifluoromethyl)quinazolin-4-yl]phenoxy}benzenesulfonamide], the IC50 came to 121 nM at human LXRβ and 1010 nM on human LXRα. Further, the EC50 with ABCA1 gene worked out at 650 nM. Besides, the Emax in the assay with ABCA1 gene is 68%.

For `CNS(=O)(=O)c1cccc(Oc2ccc(Cl)c(-c3ncnc4c(C(F)(F)F)cccc34)c2)c1` [Example 18], the IC50 at human LXRβ was found to be 4 nM. Also, the half-maximal inhibitory concentration (IC50) at human LXRα is 81 nM. For the same compound, in the assay on ABCA1 gene, the 50% effective concentration (EC50) was found to be 85 nM and the Emax came out at 94%.

As to `NC(=O)CCCS(=O)(=O)c1cccc(Oc2ccc(Cl)c(-c3ncnc4c(Cl)cccc34)c2)c1` [Example 8, 4-({3-[4-chloro-3-(8-chloroquinazolin-4-yl)phenoxy]phenyl}sulfonyl)butanamide], the IC50 is 126 nM at human LXRβ and 1310 nM at human LXRα. In addition, in the assay with ABCA1 gene, the EC50 stood at 2170 nM. Moreover, the Emax with ABCA1 gene came to 74%.

Regarding `NCCCCS(=O)(=O)c1cccc(Oc2ccc(F)c(-c3ncnc4c(Cl)cccc34)c2)c1` [Example 45, 4-({3-[3-(8-chloroquinazolin-4-yl)-4-fluorophenoxy]phenyl}sulfonyl)butan-1-amine], the values for the half-maximal inhibitory concentration (IC50) at human LXRβ and on human LXRα were 1880 nM and 11500 nM, respectively.

As to `NC(=O)CCCS(=O)(=O)c1cccc(Oc2ccc(F)c(-c3ncnc4c(Cl)cccc34)c2)c1` [Example 54, 4-({3-[3-(8-chloroquinazolin-4-yl)-4-fluorophenoxy]phenyl}sulfonyl)butanamide], the figures for the 50% inhibitory concentration (IC50) on human LXRβ and at human LXRα were 584 nM and 6540 nM, respectively.

In the case of `CS(=O)(=O)NCCCCS(=O)(=O)c1cccc(Oc2ccc(F)c(-c3ncnc4c(C(F)(F)F)cccc34)c2)c1` [Example 36, N-{4-[(3-{4-fluoro-3-[8-(trifluoromethyl)quinazolin-4-yl]phenoxy}phenyl)sulfonyl]butyl]methanesulfonamide], the IC50 came to 221 nM at human LXRβ and 2730 nM at human LXRα.

For `CS(=O)(=O)c1cc(Oc2ccc(Cl)c(-c3ncnc4c(Cl)cccc34)c2)ccc1C(N)=O` [Example 6, 4-[4-chloro-3-(8-chloroquinazolin-4-yl)phenoxy]-2-(methylsulfonyl)benzamide], the IC50 was 1260 nM on human LXRβ and 3840 nM at human LXRα.

For the compound `NC(=O)CCCCS(=O)(=O)c1cccc(Oc2ccc(F)c(-c3ncnc4c(C(F)(F)F)cccc34)c2)c1` [Example 33, 5-[(3-{4-fluoro-3-[8-(trifluoromethyl)quinazolin-4-yl]phenoxy}phenyl)sulfonyl]pentanamide], the IC50 on human LXRβ was determined as 130 nM; on human LXRα, 1350 nM.

`CS(=O)(=O)c1cc(Oc2ccc(Cl)c(-c3ncnc4c(C(F)(F)F)cccc34)c2)ccc1C#N` [Example 2, 4-{4-chloro-3-[8-(trifluoromethyl)quinazolin-4-yl]phenoxy}-2-(methylsulfonyl)benzonitrile]: the IC50 worked out at 152 nM on human LXRβ and 1060 nM on human LXRα.

As to `CNCCCS(=O)(=O)c1cccc(Oc2ccc(F)c(-c3ncnc4c(Cl)cccc34)c2)c1` [Example 44, 3-({3-[3-(8-chloroquinazolin-4-yl)-4-fluorophenoxy]phenyl}sulfonyl)-N-methylpropan-1-amine], the half-maximal inhibitory concentration (IC50) at human LXRβ was 965 nM; on human LXRα, 7310 nM.

Take `CS(=O)(=O)c1cc(Oc2ccc(Cl)c(-c3ncnc4c(C(F)(F)F)cccc34)c2)ccc1C(N)=O` [Example 7, 4-{4-chloro-3-[8-(trifluoromethyl)quinazolin-4-yl]phenoxy}-2-(methylsulfonyl)benzamide]: the results for the 50% inhibitory concentration (IC50) at human LXRβ and on human LXRα were 288 nM and 986 nM, respectively.

For the compound `CS(=O)(=O)NCCCCS(=O)(=O)c1cccc(Oc2ccc(F)c(-c3ncnc4c(Cl)cccc34)c2)c1` [Example 51, N-[4-({3-[3-(8-chloroquinazolin-4-yl)-4-fluorophenoxy]phenyl}sulfonyl)butyl]methane-sulfonamide], the IC50 is 444 nM on human LXRβ and 4890 nM on human LXRα.

For `Cc1nc(-c2cc(Oc3cccc(S(=O)(=O)CCCC#N)c3)ccc2Cl)c2cccc(C(F)(F)F)c2n1` [Example 59, 4-[(3-{4-chloro-3-[2-methyl-8-(trifluoromethyl)quinazolin-4-yl]phenoxy}phenyl)sulfonyl]-butanenitrile], the 50% inhibitory concentration (IC50) amounted to 150 nM on human LXRβ and 2260 nM on human LXRα.
